The nature of the data set: gradient 5% acetonitrile 3 min, to 50% in 2 min, to 85% in 15 min, held 3 min, 100 µL/min. To be noted: column: Zorbax Extend-C18 2.1 x 50 mm; eluents: water / acetonitrile, 0.1% formic acid. An outline of the steps: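 Standards, all pure, were combined into mixtures of ~100 molecules and run at 100 μL/min on a Zorbax Extend-C18 column (2.1 × 50 mm, 1.8 μm) with water and acetonitrile, each containing 0.1% formic acid. A coupled quadrupole time-of-flight mass spectrometer operated in positive and negative ionization mode. Retention time values come from computationally picked adduct peaks, each inspected manually.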
Consider `COc1ccccc1N1CCN(c2cc(SCC(=O)NCc3ccccc3Cl)ncn2)CC1`, for which the RP-LC retention time was found to be 908 s.
The molecule `COc1ccc(NC(=O)C2CCCN(Cc3nc(-c4cccs4)no3)C2)cc1Cl` (centres undefined) registered an RP-LC retention time of 728 s.
The molecule `COc1ccc(Cn2nc3c(S(=O)(=O)N4CCOCC4)cccn3c2=O)cc1` had an RP-LC retention time of 734 s.
Turning to `O=S(=O)(Nc1cccc(-c2cn3ccccc3n2)c1)c1ccccc1`, the RP-LC retention time was 626 s.
`CN(Cc1ccccc1)C(=O)c1cc2n(n1)CC(C)(C(=O)NC1CCCCCC1)N(C)C2=O` (centres undefined) displayed an RP-LC retention time of 866 s.
Turning to `O=C(NCCc1noc(C2CC2)n1)c1ccco1`, the RP-LC retention time amounted to 664 s.
In turn, `COc1ccc(C)cc1NC(=O)N1CCc2nc[nH]c2C1` yielded an RP-LC retention time of 592 s.
With `O=C(c1ccccc1F)N1CCN(c2cc(-c3cccs3)[nH]n2)CC1` the figure was 771 s; with `O=C(Cn1nc2c(Oc3ccccc3)nccn2c1=O)Nc1ccc(Br)cc1F`, 898 s.
In the case of `Cc1ccc(-n2ccnc2SCc2nc(-c3cccc(Br)c3)no2)cc1`, the RP-LC retention time stood at 1080 s.
With `CSc1ccc(NC(=O)N2CCN(c3cnn4c(C5CC5)nnc4c3)CC2)cc1`, the RP-LC retention time came to 668 s.
With `Cc1cc(OC(C)C(=O)Nc2ccnn2Cc2ccco2)ccc1Cl` (centres undefined) the figure was 921 s; with `O=C(c1ccccc1)c1ccccc1C(=O)c1ccccc1`, 1090 s.
For `COc1cc(NC(=O)N2CCCC(Cn3cnc4cccnc43)C2)cc(OC)c1OC` (centres undefined), the RP-LC retention time was found to be 627 s.
On to `COc1ccc(-c2cc3n(n2)CCCN(S(=O)(=O)CCc2ccccc2)C3)cc1`, for which the RP-LC retention time amounted to 983 s.
The same measure for `Cn1ncc2c(N3CCCC3)nc(C(=O)NCc3ccc(C(F)(F)F)cc3)nc21`: 905 s; for `CC(C)CN1CCN(C(=O)c2cn3cc(Cl)ccc3n2)CC1`: 577 s.
Molecule `CCNC(=O)C1CCCN(c2nc3ncn(CC(=O)Nc4ccc(C(C)C)cc4)c(=O)c3s2)C1` (centres undefined) yielded an RP-LC retention time of 759 s.
Turning to `CCn1cc(C)c(C(=O)O)c1CC(=O)Nc1ccc2c(c1)OCCO2`, the RP-LC retention time turned out to be 762 s.
In turn, `COC(=O)COc1cc(O)c2c(=O)cc(-c3ccccc3)oc2c1` returned an RP-LC retention time of 990 s.
For the molecule `CN(C)S(=O)(=O)c1ccc(-c2nnc(C(=O)NCc3cccc(C(F)(F)F)c3)o2)cc1`, the RP-LC retention time amounted to 958 s.
In turn, `CN(C)C(=O)c1ccc2c(c1)N(CC(=O)NCc1cccc(Cl)c1)C(=O)C1CCCCN21` (centres undefined) showed an RP-LC retention time of 619 s.
The same measure for `COC(=O)c1ccc(C(=O)OC)c(NC(=O)CSc2nc(C)cc(C)n2)c1`: 852 s; for `Cc1ccccc1Cn1cc(-c2ccncc2)cc1C(=O)NC(C)c1ccccn1` (centres undefined): 600 s.
`Fc1ccc(F)c(-c2nc(-c3ccc(-n4cccn4)nc3)no2)c1`: the RP-LC retention time was found to be 1170 s.
The same measure for `CCN1CCn2cc(S(=O)(=O)Nc3cc(C)ccc3F)cc2C1=O`: 751 s; for `CC(=O)Nc1ccc(NC(=O)C2CCCN(c3nccnc3Sc3ccc(C)cc3)C2)cc1` (centres undefined): 894 s.
The same measure for `O=C(c1cccc2c1CCN2C(=O)c1ccc(F)cc1)N1CCOCC1`: 704 s; for `O=c1n(CC2CO2)c(=O)n(CC2CO2)c(=O)n1CC1CO1` (centres undefined): 675 s.
Consider `CC(C)Cn1nc(CNC(=O)c2ccco2)c2ccccc21`, for which the RP-LC retention time stood at 852 s.
The molecule `Cc1[nH]c(C(=O)N2CCC(CC(=O)NCc3ccc4c(c3)OCO4)CC2)c(C)c1C` returned an RP-LC retention time of 774 s.
`Cc1ccccc1Nc1c(-c2cccc(Br)c2)nc2ccccn12` gave an RP-LC retention time of 799 s.
In turn, `COCc1nc2ccccc2n1CC(=O)Nc1ccccc1` registered an RP-LC retention time of 780 s.
Consider `Cc1sc(C)c(S(=O)(=O)N2CCN(c3ccccc3F)CC2)c1-c1cc(C(F)(F)F)on1`, for which the RP-LC retention time turned out to be 1330 s.
As to `NC(=O)CNC(=O)c1nc(-c2ccsc2)nc2c1OCCO2`, the RP-LC retention time worked out at 613 s.
In turn, `O=C(Nc1ccc(C2=NCCN2)cc1)c1ccc(Cl)c(C(=O)Nc2ccc(C3=NCCN3)cc2)c1` came in with an RP-LC retention time of 618 s.
With `O=C(NCc1ccccc1)NCC1Cn2cccc2C(=O)N1Cc1ccccc1` (centres undefined) the figure was 782 s.
In turn, `Cc1cc(C)n(-c2cc(NCCNC(=O)c3ccc(F)cc3F)ncn2)n1` yielded an RP-LC retention time of 718 s.
The molecule `Cc1cccc(CNC(=O)CN2C(=O)CCc3cc(Br)ccc32)c1` came in with an RP-LC retention time of 889 s.
With `CCCNC(=O)CC1Sc2ncccc2N(CC)C1=O` (centres undefined) the figure was 642 s; with `Cc1oc(-c2[nH]ncc2C(=O)N2CCCC2)cc1S(=O)(=O)Nc1ccccc1F`, 676 s.
On to `Cc1cc(C)cc(C(=O)N2CCN(c3nc(C)cc(N4CCCC4)n3)CC2)c1`, for which the RP-LC retention time turned out to be 735 s.
With `Cc1ccc(-c2nnc(-c3nn(C)c4c3CN(S(=O)(=O)c3c(C)n[nH]c3C)CC4)o2)cc1` the figure was 782 s; with `Cc1nn(CC(=O)N2CCN(c3ccc(F)cc3)CC2)c(=O)c2noc(C)c12`, 751 s.
As for `COC(=O)c1ccccc1NC(=O)CSc1nc2ccccc2s1`, the RP-LC retention time came out at 1030 s.
As for `CCc1ccc(Nc2c(C(=O)N3CCC(C)CC3)cnc3nc(C)ccc23)cc1`, the RP-LC retention time is 699 s.
Take `O=C(NCc1ccc(Cl)cc1)C1CCCN(c2nn3c(=O)c4c(nc3s2)CCCC4)C1` (centres undefined): the RP-LC retention time is 808 s.
Take `CCCN(CC1CCOC1)C(=O)Nc1ccc(CC)cc1` (centres undefined): the RP-LC retention time was 811 s.
With `CC(C)(CO)NS(=O)(=O)c1cc(-c2nnc(-c3ccccc3)o2)ccc1F`, the RP-LC retention time is 773 s.
In the case of `CCOC(=O)c1ccc(NC(=O)C2CCCN(S(=O)(=O)c3cc(OC)ccc3OC)C2)cc1` (centres undefined), the RP-LC retention time was 975 s.
With `O=C(Nc1nc2c(s1)CN(C(=O)Nc1ccc(Cl)c(Cl)c1)CC2)c1cnccn1` the figure was 811 s; with `Cc1ccc(S(=O)(=O)N2CCCN(C)c3ccccc32)cc1F`, 1100 s; with `CCOc1ccc(C(=O)N2CCCC2c2nc(-c3ccc(OC)c(OC)c3)no2)cc1OCC` (centres undefined), 916 s.
Consider `COc1ccc(N2CCN(c3nc(C(=O)NC4CC4)cs3)CC2)cc1`, for which the RP-LC retention time stood at 832 s.
`CC(C)c1noc(C2CCCCN2Cc2nc(-c3ccccn3)no2)n1` (centres undefined) displayed an RP-LC retention time of 824 s.
The same measure for `CCOCC(=O)N1C[C@H]2C[C@H](C1)[C@H]1CCCC(=O)N1C2`: 582 s; for `O=C(Cc1nnc(-c2ccc3ncccc3c2)o1)Nc1cccc(Cl)c1`: 768 s; for `COc1ccc(-c2nnc(N3CCC(C(=O)N4CCN(C)CC4)CC3)o2)cc1`: 582 s.
The molecule `Cc1ccc(S(=O)(=O)N2CCc3c(c(-c4nnc(-c5ccc(F)cc5)o4)nn3C)C2)cc1` came in with an RP-LC retention time of 971 s.
